Patent US11970474B2, “Substituted benzodiazoles and use thereof in therapy” (THOMAS HELLEDAYS STIFTELSE FÖR MEDICINSK FORSKNING, priority 2018, dated 2024)

What was measured:
[1] = tested on: MLE-12 cells; assay: Pro-inflammatory gene regulation induced by TNFα; format: cell-based, mouse; conditions: 20 ng/ml TNFα, 5 μM compound
Method: MLE-12 cells are maintained in suitable medium and treated with vehicle or 5 μM experimental compound for 48 h before stimulation with 20 ng/ml TNFα for 30 minutes. RNA is extracted and reverse-transcribed, followed by quantitative PCR evaluation of a panel of pro-inflammatory regulators (SABiosciences) essentially as described in Ba, Xueqing, et al., The Journal of Immunology, 192(5), 2384-94 (2014).

[2] = tested on: H460; assay: Colony formation survival assay; format: cell-based; conditions: cancer cell line H460; 7-11 days
Method: (§1) Example compounds or vehicle are transferred to 6-well plates. Cell lines to be tested are seeded at a density of 200-500 cells/well in suitable media and allowed to grow for 7-11 days in at 5% CO2, 37° C. The medium is removed and replaced with 4% w/v methylene blue in methanol. Following extensive washes in tap water and air drying, […] with more than 50 […] are counted, as described in Franken, Nicolaas A. P., et al., Nature Protocols, 1(5), 2315-19 (2006).

[3] = tested on: ACHN; assay: Colony formation survival assay; format: cell-based; conditions: cancer cell line ACHN; 7-11 days
Method: as §1

O=C(Nc1ccc(I)cc1)N1CCC(n2c(=O)[nH]c3c(Br)cccc32)CC1 [Example 13, 4-(4-Bromo-2-oxo-2,3-dihydro-1H-1,3-benzodiazol-1-yl)-N-(4-iodophenyl)piperidine-1-carboxamide]
pro-inflammatory gene regulation induced by the cytokine TNFα [1]: reduces pro-inflammatory gene regulation
colony formation [2]: inhibits colony formation
colony formation [3]: inhibits colony formation
